Measurements as given in paper PMC9481151, “Discovery of new symmetrical and asymmetrical nitrile-containing 1,4-dihydropyridine derivatives as dual kinases and P-glycoprotein inhibitors: synthesis, in vitro assays, and in silico studies” (Journal of Enzyme Inhibition and Medicinal Chemistry, 2022).

Experiments:
[1] = test system: NCI-H522; assay: NCI single dose (10 µM) SRB screen; type: cell-based, human; details: non-small cell lung cancer, 48 h
[2] = test system: IGROV1; assay: NCI single dose (10 µM) SRB screen; type: cell-based, human; details: ovarian cancer, 48 h
[3] = test system: LOX IMVI; assay: NCI single dose (10 µM) SRB screen; type: cell-based, human; details: melanoma, 48 h
[4] = test system: NCI 60 cancer cell lines; assay: NCI single dose (10 µM) SRB screen, mean over panel; type: cell-based, human; details: mean over 60 cell lines, 48 h
[5] = test system: SNB-19; assay: NCI single dose (10 µM) SRB screen; type: cell-based, human; details: CNS cancer, 48 h
[6] = test system: SK-OV-3; assay: NCI single dose (10 µM) SRB screen; type: cell-based, human; details: ovarian cancer, 48 h
[7] = test system: MDA-MB-231; assay: NCI single dose (10 µM) SRB screen; type: cell-based, human; details: breast cancer, 48 h
[8] = test system: SF-539; assay: NCI single dose (10 µM) SRB screen; type: cell-based, human; details: CNS cancer, 48 h
[9] = test system: SW-620; assay: NCI single dose (10 µM) SRB screen; type: cell-based, human; details: colon cancer, 48 h
[10] = test system: U251; assay: NCI single dose (10 µM) SRB screen; type: cell-based, human; details: CNS cancer, 48 h
[11] = test system: NCI/ADR-RES; assay: NCI single dose (10 µM) SRB screen; type: cell-based, human; details: ovarian cancer, 48 h
[12] = test system: NCI-H322M; assay: NCI single dose (10 µM) SRB screen; type: cell-based; details: non-small cell lung cancer, 48 h
[13] = test system: OVCAR-3; assay: NCI single dose (10 µM) SRB screen; type: cell-based, human; details: ovarian cancer, 48 h
[14] = test system: TK-10; assay: NCI single dose (10 µM) SRB screen; type: cell-based, human; details: renal cancer, 48 h
[15] = test system: T-47D; assay: NCI single dose (10 µM) SRB screen; type: cell-based, human; details: breast cancer, 48 h
[16] = test system: MDA-MB-468; assay: NCI single dose (10 µM) SRB screen; type: cell-based, human; details: breast cancer, 48 h
[17] = test system: NCI-H23; assay: NCI single dose (10 µM) SRB screen; type: cell-based, human; details: non-small cell lung cancer, 48 h
[18] = test system: EKVX; assay: NCI single dose (10 µM) SRB screen; type: cell-based, human; details: non-small cell lung cancer, 48 h
[19] = test system: KM12; assay: NCI single dose (10 µM) SRB screen; type: cell-based, human; details: colon cancer, 48 h
[20] = test system: SF-295; assay: NCI single dose (10 µM) SRB screen; type: cell-based, human; details: CNS cancer, 48 h
[21] = test system: Candida albicans; assay: Agar well diffusion method; details: relative to clotrimazole
[22] = test system: SNB-75; assay: NCI single dose (10 µM) SRB screen; type: cell-based, human; details: CNS cancer, 48 h
[23] = test system: RXF 393; assay: NCI single dose (10 µM) SRB screen; type: cell-based, human; details: renal cancer, 48 h
[24] = test system: SN12C; assay: NCI single dose (10 µM) SRB screen; type: cell-based, human; details: renal cancer, 48 h
[25] = test system: M14; assay: NCI single dose (10 µM) SRB screen; type: cell-based, human; details: melanoma, 48 h
[26] = test system: HOP-92; assay: NCI single dose (10 µM) SRB screen; type: cell-based, human; details: non-small cell lung cancer, 48 h
[27] = test system: CCRF-CEM; assay: NCI single dose (10 µM) SRB screen; type: cell-based, human; details: leukaemia, 48 h
[28] = test system: MALME-3M; assay: NCI single dose (10 µM) SRB screen; type: cell-based, human; details: melanoma, 48 h
[29] = test system: Bacillus subtilis; assay: Agar well diffusion method; details: relative to ciprofloxacin
[30] = test system: MOLT-4; assay: NCI single dose (10 µM) SRB screen; type: cell-based, human; details: leukaemia, 48 h
[31] = test system: Aspergillus flavus; assay: Agar well diffusion method; details: relative to clotrimazole
[32] = test system: SR; assay: NCI single dose (10 µM) SRB screen; type: cell-based, human; details: leukaemia, 48 h
[33] = test system: OVCAR-4; assay: NCI single dose (10 µM) SRB screen; type: cell-based, human; details: ovarian cancer, 48 h
[34] = test system: CAKI-1; assay: NCI single dose (10 µM) SRB screen; type: cell-based, human; details: renal cancer, 48 h
[35] = test system: COLO 205; assay: NCI single dose (10 µM) SRB screen; type: cell-based, human; details: colon cancer, 48 h
[36] = test system: SK-MEL-28; assay: NCI single dose (10 µM) SRB screen; type: cell-based, human; details: melanoma, 48 h
[37] = test system: OVCAR-5; assay: NCI single dose (10 µM) SRB screen; type: cell-based, human; details: ovarian cancer, 48 h
[38] = test system: K-562; assay: NCI single dose (10 µM) SRB screen; type: cell-based, human; details: leukaemia, 48 h
[39] = test system: SF-268; assay: NCI single dose (10 µM) SRB screen; type: cell-based, human; details: CNS cancer, 48 h
[40] = test system: SK-MEL-5; assay: NCI single dose (10 µM) SRB screen; type: cell-based, human; details: melanoma, 48 h
[41] = test system: NCI-H226; assay: NCI single dose (10 µM) SRB screen; type: cell-based, human; details: non-small cell lung cancer, 48 h
[42] = test system: A498; assay: NCI single dose (10 µM) SRB screen; type: cell-based, human; details: renal cancer, 48 h
[43] = test system: NCI-H460; assay: NCI single dose (10 µM) SRB screen; type: cell-based, human; details: non-small cell lung cancer, 48 h
[44] = test system: MCF7; assay: NCI single dose (10 µM) SRB screen; type: cell-based, human; details: breast cancer, 48 h
[45] = test system: HCT-15; assay: NCI single dose (10 µM) SRB screen; type: cell-based, human; details: colon cancer, 48 h
[46] = test system: UO-31; assay: NCI single dose (10 µM) SRB screen; type: cell-based, human; details: renal cancer, 48 h
[47] = test system: HT29; assay: NCI single dose (10 µM) SRB screen; type: cell-based, human; details: colon cancer, 48 h
[48] = test system: 786-0; assay: NCI single dose (10 µM) SRB screen; type: cell-based, human; details: renal cancer, 48 h
[49] = test system: RPMI-8226; assay: NCI single dose (10 µM) SRB screen; type: cell-based, human; details: leukaemia, 48 h
[50] = test system: HL-60(TB); assay: NCI single dose (10 µM) SRB screen; type: cell-based, human; details: leukaemia, 48 h
[51] = test system: SK-MEL-2; assay: NCI single dose (10 µM) SRB screen; type: cell-based, human; details: melanoma, 48 h
[52] = test system: A549/ATCC; assay: NCI single dose (10 µM) SRB screen; type: cell-based, human; details: non-small cell lung cancer, 48 h
[53] = test system: UACC-62; assay: NCI single dose (10 µM) SRB screen; type: cell-based, human; details: melanoma, 48 h
[54] = test system: HCT-116; assay: NCI single dose (10 µM) SRB screen; type: cell-based, human; details: colon cancer, 48 h
[55] = test system: BT-549; assay: NCI single dose (10 µM) SRB screen; type: cell-based, human; details: breast cancer, 48 h
[56] = test system: Pseudomonas aeruginosa; assay: Agar well diffusion method; details: relative to ciprofloxacin
[57] = test system: OVCAR-8; assay: NCI single dose (10 µM) SRB screen; type: cell-based, human; details: ovarian cancer, 48 h
[58] = test system: HS578T; assay: NCI single dose (10 µM) SRB screen; type: cell-based, human; details: breast cancer, 48 h
[59] = test system: UACC-257; assay: NCI single dose (10 µM) SRB screen; type: cell-based, human; details: melanoma, 48 h
[60] = test system: PC-3; assay: NCI single dose (10 µM) SRB screen; type: cell-based, human; details: prostate cancer, 48 h
[61] = test system: MDA-MB-435; assay: NCI single dose (10 µM) SRB screen; type: cell-based, human; details: melanoma, 48 h
[62] = test system: Staphylococcus aureus; assay: Agar well diffusion method; details: relative to ciprofloxacin
[63] = test system: Escherichia coli; assay: Agar well diffusion method; details: relative to ciprofloxacin
[64] = test system: HOP-62; assay: NCI single dose (10 µM) SRB screen; type: cell-based, human; details: non-small cell lung cancer, 48 h
[65] = test system: HCC-2998; assay: NCI single dose (10 µM) SRB screen; type: cell-based, human; details: colon cancer, 48 h
[66] = test system: DU-145; assay: NCI single dose (10 µM) SRB screen; type: cell-based, human; details: prostate cancer, 48 h
[67] = test system: ACHN; assay: NCI single dose (10 µM) SRB screen; type: cell-based, human; details: renal cancer, 48 h

SMILES: CCOC(=O)C1=C(C)NC(C)=C(C(=O)OCC(C)C)C1c1cccc(C#N)c1 (racemic) [Compound 2i, (±)-3-Ethyl 5-isobutyl 4-(3-cyanophenyl)-2,6-dimethyl-1,4-dihydropyridine-3,5-dicarboxylate]
- GI% NCI-H522 [1]: 13%
- GI% IGROV1 [2]: – (Only GI% ≥ 10 are shown)
- GI% LOX IMVI [3]: 20%
- Mean GI% [4]: 9%
- GI% SNB-19 [5]: – (Only GI% ≥ 10 are shown)
- GI% SK-OV-3 [6]: – (Only GI% ≥ 10 are shown)
- GI% MDA-MB-231 [7]: – (Only GI% ≥ 10 are shown)
- GI% SF-539 [8]: – (Only GI% ≥ 10 are shown)
- GI% SW-620 [9]: – (Only GI% ≥ 10 are shown)
- GI% U251 [10]: – (Only GI% ≥ 10 are shown)
- GI% NCI/ADR-RES [11]: 22%
- GI% NCI-H322M [12]: – (Only GI% ≥ 10 are shown)
- GI% OVCAR-3 [13]: – (Only GI% ≥ 10 are shown)
- GI% TK-10 [14]: – (Only GI% ≥ 10 are shown)
- GI% T-47D [15]: 32%
- GI% MDA-MB-468 [16]: 24%
- GI% NCI-H23 [17]: 24%
- GI% EKVX [18]: 29%
- GI% KM12 [19]: – (Only GI% ≥ 10 are shown)
- GI% SF-295 [20]: 31%
- % activity index, C. albicans [21]: – (Values below 25 are of limited value and not shown as they refer either to inactive or non-diffusing compounds)
- GI% SNB-75 [22]: 18%
- GI% RXF 393 [23]: 30%
- GI% SN12C [24]: – (Only GI% ≥ 10 are shown)
- GI% M14 [25]: – (Only GI% ≥ 10 are shown)
- GI% HOP-92 [26]: 18%
- GI% CCRF-CEM [27]: – (Only GI% ≥ 10 are shown)
- GI% MALME-3M [28]: – (Only GI% ≥ 10 are shown)
- % activity index, B. subtilis [29]: – (Values below 25 are of limited value and not shown as they refer either to inactive or non-diffusing compounds)
- GI% MOLT-4 [30]: 21%
- % activity index, A. flavus [31]: – (Values below 25 are of limited value and not shown as they refer either to inactive or non-diffusing compounds)
- GI% SR [32]: 23%
- GI% OVCAR-4 [33]: 12%
- GI% CAKI-1 [34]: 35%
- GI% COLO 205 [35]: – (Only GI% ≥ 10 are shown)
- GI% SK-MEL-28 [36]: – (Only GI% ≥ 10 are shown)
- GI% OVCAR-5 [37]: – (Only GI% ≥ 10 are shown)
- GI% K-562 [38]: 24%
- GI% SF-268 [39]: – (Only GI% ≥ 10 are shown)
- GI% SK-MEL-5 [40]: 12%
- GI% NCI-H226 [41]: 22%
- GI% A498 [42]: – (Only GI% ≥ 10 are shown)
- GI% NCI-H460 [43]: – (Only GI% ≥ 10 are shown)
- GI% MCF7 [44]: 34%
- GI% HCT-15 [45]: 30%
- GI% UO-31 [46]: – (Only GI% ≥ 10 are shown)
- GI% HT29 [47]: – (Only GI% ≥ 10 are shown)
- GI% 786-0 [48]: 11%
- GI% RPMI-8226 [49]: – (Only GI% ≥ 10 are shown)
- GI% HL-60(TB) [50]: – (Only GI% ≥ 10 are shown)
- GI% SK-MEL-2 [51]: – (Only GI% ≥ 10 are shown)
- GI% A549/ATCC [52]: 10%
- GI% UACC-62 [53]: 27%
- melting point: 120 to 121 °C
- GI% HCT-116 [54]: 23%
- GI% BT-549 [55]: – (Only GI% ≥ 10 are shown)
- % activity index, P. aeruginosa [56]: – (Values below 25 are of limited value and not shown as they refer either to inactive or non-diffusing compounds)
- GI% OVCAR-8 [57]: – (Only GI% ≥ 10 are shown)
- GI% HS578T [58]: 13%
- GI% UACC-257 [59]: – (Only GI% ≥ 10 are shown)
- GI% PC-3 [60]: 29%
- GI% MDA-MB-435 [61]: – (Only GI% ≥ 10 are shown)
- % activity index, S. aureus [62]: – (Values below 25 are of limited value and not shown as they refer either to inactive or non-diffusing compounds)
- % activity index, E. coli [63]: – (Values below 25 are of limited value and not shown as they refer either to inactive or non-diffusing compounds)
- GI% HOP-62 [64]: – (Only GI% ≥ 10 are shown)
- GI% HCC-2998 [65]: – (Only GI% ≥ 10 are shown)
- GI% DU-145 [66]: – (Only GI% ≥ 10 are shown)
- GI% ACHN [67]: – (Only GI% ≥ 10 are shown)
